From PubChem BioAssay AID248 (DTP/NCI, 2004)
Where “and” joins values, the source holds several entries; their conditions need not be identical. Equal entries are not always repeated. Inconclusive results and toxic doses are left out. Cut-off read from the data, not from the text of the source: active = T/C of 150% or more; inactive = T/C below 125%. Peptide text beside a SMILES is read from it.

System: L1210 leukemia ip in BDF1 mice, survival T/C
Experiment: NCI In Vivo Anticancer Drug Screen. Data for tumor model L1210 Leukemia (intraperitoneal) in B6D2F1 (BDF1) mice
Conditions: endpoint: mean survival time, higher = longer survival
How it was run: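 Transplanted-tumor mice were given test agent; controls received vehicle only. Survival readings from the two groups were divided (treated over control).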

[1] = dose: 100.0 mg/kg/injection, schedule: Q01DX001 (ip), vehicle: carboxymethylcellulose (CMC)
[2] = dose: 200.0 mg/kg/injection, schedule: Q01DX001 (ip), vehicle: carboxymethylcellulose (CMC)
[3] = dose: 400.0 mg/kg/injection, schedule: Q01DX001 (ip), vehicle: carboxymethylcellulose (CMC)
[4] = dose: 100.0 mg/kg/injection, schedule: Q01DX009 (ip), vehicle: saline
[5] = dose: 200.0 mg/kg/injection, schedule: Q01DX009 (ip), vehicle: saline
[6] = dose: 100.0 mg/kg/injection, schedule: Q01DX001 (ip), vehicle: saline
[7] = dose: 200.0 mg/kg/injection, schedule: Q01DX001 (ip), vehicle: saline
[8] = dose: 400.0 mg/kg/injection, schedule: Q01DX001 (ip), vehicle: saline
[9] = dose: 100.0 mg/kg/injection, schedule: Q04DX002 (ip), vehicle: saline with Tween-80
[10] = dose: 200.0 mg/kg/injection, schedule: Q04DX002 (ip), vehicle: saline with Tween-80
[11] = dose: 400.0 mg/kg/injection, schedule: Q04DX002 (ip), vehicle: saline with Tween-80
[12] = dose: 100.0 mg/kg/injection, schedule: Q04DX003 (ip), vehicle: Klucel (hydroxypropylcellulose) (HPC)
[13] = dose: 200.0 mg/kg/injection, schedule: Q04DX003 (ip), vehicle: Klucel (hydroxypropylcellulose) (HPC)

Measured: T/C

CC(=O)NCC(=O)c1ccc(S(=O)(=O)c2ccccc2)cc1
inactive: dose: 50.0 mg/kg/injection, schedule: Q01DX001 (ip), vehicle: carboxymethylcellulose (CMC) 104 % of control | [1] 98 % of control | [2] 96 % of control | [3] 98 % of control

COc1ccc(C(=O)/C=C/c2ccc(OCc3ccccc3)c(OC)c2)cc1OC
inactive: dose: 100.0 mg/kg/injection, schedule: Q04DX003 (ip), vehicle: water 93 % of control | dose: 200.0 mg/kg/injection, schedule: Q04DX003 (ip), vehicle: water 93 % of control | dose: 400.0 mg/kg/injection, schedule: Q04DX003 (ip), vehicle: water 91 % of control

O=C(Nc1cccc2ccccc12)NC1CC1
inactive: dose: 100.0 mg/kg/injection, schedule: Q01DX009 (ip), vehicle: other 94 % of control | dose: 100.0 mg/kg/injection, schedule: Q04DX003 (ip), vehicle: other 97 % of control | dose: 200.0 mg/kg/injection, schedule: Q01DX009 (ip), vehicle: other 94 % of control | dose: 200.0 mg/kg/injection, schedule: Q04DX003 (ip), vehicle: other 96 % of control | dose: 400.0 mg/kg/injection, schedule: Q01DX009 (ip), vehicle: other 94 % of control | dose: 400.0 mg/kg/injection, schedule: Q04DX003 (ip), vehicle: other 87 % of control

O=C1c2ccccc2CC1(c1ccccc1)c1ccccc1
inactive: [1] 91 % of control | [2] 94 % of control | [3] 94 % of control

COn1c(/C=N/NC(N)=S)ccc1CN1C(=O)c2ccccc2C1=O
inactive: dose: 100.0 mg/kg/injection, schedule: Q01DX001 (ip), vehicle: Klucel (hydroxypropylcellulose) (HPC) 100 % of control | dose: 200.0 mg/kg/injection, schedule: Q01DX001 (ip), vehicle: Klucel (hydroxypropylcellulose) (HPC) 97 % of control | dose: 400.0 mg/kg/injection, schedule: Q01DX001 (ip), vehicle: Klucel (hydroxypropylcellulose) (HPC) 93 % of control

CC(=O)OC/N=[N+](/C)[O-]
inactive: dose: 2.0 mg/kg/injection, schedule: Q01DX Z (ip), vehicle: saline 98 % of control | dose: 4.0 mg/kg/injection, schedule: Q01DX Z (ip), vehicle: saline 110 % of control | dose: 6.0 mg/kg/injection, schedule: Q01DX Z (ip), vehicle: saline 97 % of control | dose: 8.0 mg/kg/injection, schedule: Q01DX Z (ip), vehicle: saline 104 % of control | dose: 12.5 mg/kg/injection, schedule: Q01DX Z (ip), vehicle: saline 91 % of control

c1ccc2c(c1)O[As](O[As]1Oc3ccccc3O1)O2
inactive: dose: 1.56 mg/kg/injection, schedule: Q04DX003 (ip), vehicle: saline 104 % of control | dose: 3.12 mg/kg/injection, schedule: Q01DX009 (ip), vehicle: saline with Tween-80 108 % of control | dose: 3.12 mg/kg/injection, schedule: Q04DX003 (ip), vehicle: saline 106 % of control | dose: 6.25 mg/kg/injection, schedule: Q01DX009 (ip), vehicle: saline with Tween-80 116 % of control | dose: 6.25 mg/kg/injection, schedule: Q04DX003 (ip), vehicle: saline 115 % of control | dose: 12.5 mg/kg/injection, schedule: Q01DX009 (ip), vehicle: saline with Tween-80 122 % of control | dose: 12.5 mg/kg/injection, schedule: Q04DX003 (ip), vehicle: saline with Tween-80 96 % of control

COCC1OC(OC2OCC3OC4(OCC(O)(C(C)OC)C5OCOC54)OC3C2OC)C(OC)C(O)C1OC1OC(C)C(OC)C(OC2OC(C)C3OC4(CC(O)C(OC5CC(OC6CC(C)([N+](=O)[O-])C(OC)C(C)O6)C(OC(=O)c6c(C)c(Cl)c(O)c(Cl)c6OC)C(C)O5)C(C)O4)OC3(C)C2O)C1O (stereo unspecified)
inactive: dose: 50.0 mg/kg/injection, schedule: Q01DX009 (ip), vehicle: saline 106 % of control | [4] 106 % of control | [5] 96 % of control

O=C1COc2cc(O)c(O)cc21
inactive: [6] 104 % of control | [7] 103 % of control | [8] 104 % of control

NC(CCC(=O)O)C(=O)NC(CC(=O)O)C(=O)O (stereo not drawn) (H-Glu-Asp-OH; configuration not given here)
inactive: dose: 12.5 mg/kg/injection, schedule: Q04DX002 (ip), vehicle: Klucel (hydroxypropylcellulose) (HPC) 90 % of control | dose: 25.0 mg/kg/injection, schedule: Q04DX002 (ip), vehicle: Klucel (hydroxypropylcellulose) (HPC) 105 % of control | dose: 50.0 mg/kg/injection, schedule: Q04DX002 (ip), vehicle: Klucel (hydroxypropylcellulose) (HPC) 98 % of control | dose: 100.0 mg/kg/injection, schedule: Q04DX002 (ip), vehicle: Klucel (hydroxypropylcellulose) (HPC) 94 % of control

CN(C)C(=O)NCC[N+](C)(C)C
inactive: [4] 100 % of control | dose: 100.0 mg/kg/injection, schedule: Q04DX003 (ip), vehicle: saline 99 % of control | [5] 106 % of control | dose: 200.0 mg/kg/injection, schedule: Q04DX003 (ip), vehicle: saline 92 % of control | dose: 400.0 mg/kg/injection, schedule: Q01DX009 (ip), vehicle: saline 97 % of control | dose: 400.0 mg/kg/injection, schedule: Q04DX003 (ip), vehicle: saline 94 % of control

Cn1nc(SCc2ccccc2)c(=O)[nH]c1=O
inactive: dose: 75.0 mg/kg/injection, schedule: Q01DX001 (ip), vehicle: saline 97 % of control | dose: 150.0 mg/kg/injection, schedule: Q01DX001 (ip), vehicle: saline 104 % of control

CC(=O)COc1ccc(Cl)cc1Cl
inactive: dose: 100.0 mg/kg/injection, schedule: Q01DX009 (ip), vehicle: saline with Tween-80 98 % of control | dose: 200.0 mg/kg/injection, schedule: Q01DX009 (ip), vehicle: saline with Tween-80 97 % of control | dose: 400.0 mg/kg/injection, schedule: Q01DX009 (ip), vehicle: saline with Tween-80 92 % of control

CC1=C2C(=CO[C@H](C)[C@H]2C)C(=O)C(C(=O)O)=C1O
inactive: dose: 12.5 mg/kg/injection, schedule: Q04DX002 (ip), vehicle: saline with Tween-80 88 % of control | dose: 25.0 mg/kg/injection, schedule: Q04DX002 (ip), vehicle: saline with Tween-80 103 % of control | dose: 50.0 mg/kg/injection, schedule: Q04DX002 (ip), vehicle: saline with Tween-80 102 % of control and 88 % of control

O=C(COc1ccc(Cl)cc1)NC(CO)(CO)CO
inactive: [9] 103 % of control | [10] 103 % of control | [11] 103 % of control

COc1ccccc1CN1CCCN(Cc2ccccc2OC)C1c1ccccc1O
inactive: dose: 50.0 mg/kg/injection, schedule: Q01DX001 (ip), vehicle: saline 101 % of control | [6] 103 % of control | [7] 101 % of control | [8] 97 % of control

O=C(Nc1ccc(F)c(Cl)c1)Oc1cc(=O)oc2ccccc12
inactive: [12] 92 % of control | [13] 101 % of control | dose: 400.0 mg/kg/injection, schedule: Q04DX003 (ip), vehicle: Klucel (hydroxypropylcellulose) (HPC) 105 % of control

Cc1cnc(SCc2ccccc2Cl)[nH]c1=O
inactive: dose: 25.0 mg/kg/injection, schedule: Q01DX Z (ip), vehicle: methylcellulose (MC) 90 % of control | dose: 50.0 mg/kg/injection, schedule: Q01DX Z (ip), vehicle: methylcellulose (MC) 100 % of control

O=C(O)CC1CC2CCC1C2 (stereo unspecified)
inactive: [9] 87 % of control | [10] 97 % of control | [11] 87 % of control

N#[N+]c1c([O-])[nH]c(=S)[nH]c1=O
inactive: dose: 100.0 mg/kg/injection, schedule: Q01DX009 (ip), vehicle: acetone 92 % of control | dose: 100.0 mg/kg/injection, schedule: Q04DX003 (ip), vehicle: acetone 100 % of control | dose: 200.0 mg/kg/injection, schedule: Q01DX009 (ip), vehicle: acetone 96 % of control | dose: 200.0 mg/kg/injection, schedule: Q04DX003 (ip), vehicle: acetone 103 % of control | dose: 400.0 mg/kg/injection, schedule: Q01DX009 (ip), vehicle: acetone 88 % of control | dose: 400.0 mg/kg/injection, schedule: Q04DX003 (ip), vehicle: acetone 94 % of control

N#Cc1ccccc1.N#Cc1ccccc1.[Cl][Pd][Cl]
inactive: dose: 50.0 mg/kg/injection, schedule: Q01DX009 (ip), vehicle: Klucel (hydroxypropylcellulose) (HPC) 95 % of control | dose: 100.0 mg/kg/injection, schedule: Q01DX009 (ip), vehicle: Klucel (hydroxypropylcellulose) (HPC) 95 % of control | [12] 94 % of control | dose: 200.0 mg/kg/injection, schedule: Q01DX009 (ip), vehicle: Klucel (hydroxypropylcellulose) (HPC) 101 % of control | [13] 102 % of control
